Here are results for four compounds from US6140341A, “Aminoalkyl and acylaminoalkyl ethers, process for their preparation, and their use as bradykinin receptor antagonists” (Hoechst Aktiengesellschaft, priority 1996, dated 2000).

The target in assay [1] is T1, bradykinin B2 receptor (Cavia porcellus, UniProt O70526).
T1 construct: preparations of membranes from the guinea pig ileum; from tissue; host or cells: guinea pig ileum membranes
T1 sequence (O70526 1-372): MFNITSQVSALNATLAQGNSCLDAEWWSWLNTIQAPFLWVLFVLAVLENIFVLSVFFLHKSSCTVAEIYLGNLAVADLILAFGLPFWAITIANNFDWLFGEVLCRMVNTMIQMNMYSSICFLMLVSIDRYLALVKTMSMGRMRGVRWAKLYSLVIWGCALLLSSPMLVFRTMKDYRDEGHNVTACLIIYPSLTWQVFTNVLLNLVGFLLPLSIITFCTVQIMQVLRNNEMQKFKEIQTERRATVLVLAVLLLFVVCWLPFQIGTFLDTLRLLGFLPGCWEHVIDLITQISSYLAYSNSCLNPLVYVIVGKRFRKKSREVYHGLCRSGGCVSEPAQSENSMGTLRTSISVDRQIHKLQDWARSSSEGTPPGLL
Description: Affinity for the bradykinin B2 receptor on membrane preparations from guinea pig ileum (3H-bradykinin competition). It counts as binding. The conditions noted are these: 3H-bradykinin (0.25 to 0.3 nMol/l), guinea pig ileum membranes, pH 6.8, room temperature, 60 minutes. As to the method: Determination of the affinity of the compounds of the formula (I) for the bradykinin B2 receptor took place on preparations of membranes from the guinea pig ileum (R. B. Innis et al., Proc. Natl. Acad. Sci. USA; […] (1981) 2630) by the following method:
1. Ligand: ^3 H-BRADYKININ (from NEN Du Pont)
25 mM TES (SIGMA, Order No.: T-4152)
1 mM 1,10-phenanthroline (SIGMA; Order No.: P-9375)
25 mM TES (SIGMA; Order No.: T-4152)
0.1% albumin, bovine (SIGMA; Order No.: A-7906)
140 μg/ml bacitracin (SIGMA; Order No.: B-0125)
1 mM dithiothreitol (SIGMA; Order No.: D-0632)
1 μM captopril-1-[(2S)-3-mercapto-2-methylpropionyl]-L-proline
Both buffers are adjusted to pH 6.8 with 5 molar NaOH.
Guinea pig ilea are carefully squeezed out to remove most of the intestinal contents and are cleaned in 0.9% strength NaCl solution.
The pieces of ilea about 2 cm long are transferred into ice-cold TES buffer (about 1 g/10 ml) and homogenized with an Ultraturrax in an ice bath for about 30 sec. The homogenate is then filtered through 3 layers of gauze and the filtrate is centrifuged at 50,000 g for 10 minutes.
The supernatant is discarded, and the pellet is rehomogenized in the same volume of TES buffer and again centrifuged at 50,000 g for 10 minutes. The pellet is rehomogenized in incubation buffer (about 1 g/5 ml) and frozen in 2 ml portions in cryotubes at -70° C.
The protein concentration in the finished membrane suspension is determined by the LOWRY method and should be about 15 μg/100 μl.
All the incubations are carried out in a volume of 200 μl in microtiter plates (96×300 μl) at room temperature for 60 minutes. All mixtures in incubation bufler. 50 μl of the radioligands, 50 μl of the product to be tested and 100 μl of the membrane suspension are successively pipetted into these in the wells of the microtiter plate. […]
a) Saturation experiments (hot saturation): […]
Nonspecific binding: The nonspecific binding must be determined for each concentration of the radioactive ligand. […]

Assay [2] relates to bradykinin-induced contraction of the guinea pig ileum. Description: Bradykinin-antagonistic effect on the bradykinin-induced contraction of the isolated guinea pig ileum. The conditions noted are these: Cavia porcellus, 10 min, Tyrode solution 37° C., antagonist action time 10 min. The text has this:
Furthermore, to determine the bradykinin-antagonistic effect of the compounds of the formula (I) it is possible to measure their effect on the bradykinin-induced contraction of the guinea pig ileum by the following protocol:
Guinea pigs weighing about 300 g (Morioth strain,--) are sacrificed by a blow to the back of the neck and are exsanguinated. A length of about 20 cm of ileum is dissected out and rinsed with Tyrode solution (Record syringe), thus removing intestinal contents. It is then divided into segments 1.5 cm long. These are fixed in organ baths with a capacity of 10 ml which are filled with Tyrode solution, and are connected to strain gauges (isometric contraction measurement). The initial load is 1 g. The Tyrode solution is heated in a water bath to 37° C., and compressed air is bubbled through.
After an interval of 30 min, the experiment is started. After recording the biological zero line, bradykinin is added to each organ bath in a final concentration of […], and the concentration is recorded. Then, after rinsing with Tyrode solution for 3 min and a resting period of 20 min, bradykinin is again added. The maximum contraction is reached (control). Rinsing and resting period repeated. The bradykinin antagonist is then added (action time 10 min.). […] The experiment is recorded on a pen recorder. […]

A word on the Ki: it is a measure of affinity in units of concentration, obtained from inhibition or displacement. A high value points to lower affinity. In assay [1], `Cc1ccc2cccc(OCc3c(Cl)ccc(OCCNC(=O)/C=C/c4ccc(N)cc4)c3Cl)c2n1` [Example 2, 8-[3-(2-N-(trans-4-aminocinnamoyl)aminoethoxy)-2,6-dichlorobenzyloxy]-2-methylquinoline] registered a Ki of 20 nM.

`Cc1ccc2cccc(OCc3c(Cl)ccc(OCCNC(=O)/C=C/c4ccccc4)c3Cl)c2n1` [Example 5, 8-[2,6-dichloro-3-(trans-2-N-cinnamoylaminoethoxy)benzyloxy]-2-methylquinoline] returned a Ki in assay [1] of 61 nM.

The term IC50 denotes the concentration at which inhibition is half-maximal. The low end stands for inhibition by little substance, the high end for a need for much substance. Regarding `Cc1ccc2cccc(OCc3c(Cl)ccc(OCCN)c3Cl)c2n1` [Example 1, 8-[3-(2-aminoethoxy)-2,6-dichlorobenzyloxy]-2-methylquinoline], the IC50 in assay [2] was found to be 1800 nM. This counts as single-digit micromolar.

In turn, `COc1ccc(/C=C/C(=O)NCCOc2ccc(Cl)c(COc3cccc4ccc(C)nc34)c2Cl)cc1` [Example 6, 8-[2,6-dichloro-3-(2-N-(trans-4-methoxycinnamoyl)aminoethoxy)benzyloxy]-2-methylquinoline] returned a Ki in assay [1] of 32 nM.
